Results published in PubChem BioAssay AID248 (DTP/NCI, 2004).
“And” between values parts separate entries of the source, which are not always exact repeats. Identical values can stand only once. Toxic doses and inconclusive results are not listed. Rule as the data show it: active = T/C of 150% or more; inactive = T/C below 125%.

Test system: L1210 leukemia ip in BDF1 mice, survival T/C
Experiment: NCI In Vivo Anticancer Drug Screen. Data for tumor model L1210 Leukemia (intraperitoneal) in B6D2F1 (BDF1) mice
Conditions: endpoint: mean survival time, higher = longer survival
Summary of the method: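 Transplantable tumor model; survival measured in treated vs vehicle control mice. Value = treated/control.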

[1] = dose: 100.0 mg/kg/injection, schedule: Q01DX001 (ip), vehicle: saline
[2] = dose: 200.0 mg/kg/injection, schedule: Q01DX001 (ip), vehicle: saline
[3] = dose: 400.0 mg/kg/injection, schedule: Q01DX001 (ip), vehicle: saline
[4] = dose: 400.0 mg/kg/injection, schedule: Q01DX009 (ip), vehicle: Klucel (hydroxypropylcellulose) (HPC)
[5] = dose: 400.0 mg/kg/injection, schedule: Q04DX003 (ip), vehicle: Klucel (hydroxypropylcellulose) (HPC)
[6] = dose: 100.0 mg/kg/injection, schedule: Q01DX009 (ip), vehicle: Klucel (hydroxypropylcellulose) (HPC)
[7] = dose: 50.0 mg/kg/injection, schedule: Q01DX001 (ip), vehicle: saline
[8] = dose: 50.0 mg/kg/injection, schedule: Q01DX009 (ip), vehicle: saline
[9] = dose: 50.0 mg/kg/injection, schedule: Q04DX003 (ip), vehicle: saline
[10] = dose: 100.0 mg/kg/injection, schedule: Q04DX002 (ip), vehicle: saline
[11] = dose: 100.0 mg/kg/injection, schedule: Q04DX003 (ip), vehicle: Klucel (hydroxypropylcellulose) (HPC)
[12] = dose: 200.0 mg/kg/injection, schedule: Q04DX003 (ip), vehicle: Klucel (hydroxypropylcellulose) (HPC)

Measured: T/C

O=c1[nH]cc[nH]1
inactive: [1] 100 % of control | dose: 178.0 mg/kg/injection, schedule: Q01DX009 (ip), vehicle: saline 109 % of control | [2] 105 % of control | dose: 267.0 mg/kg/injection, schedule: Q01DX009 (ip), vehicle: Klucel (hydroxypropylcellulose) (HPC) 106 % of control | dose: 267.0 mg/kg/injection, schedule: Q01DX009 (ip), vehicle: saline 119 % of control | dose: 267.0 mg/kg/injection, schedule: Q04DX003 (ip), vehicle: Klucel (hydroxypropylcellulose) (HPC) 105 % of control | [3] 109 % of control | [4] 117 % of control | [5] 104 % of control | dose: 600.0 mg/kg/injection, schedule: Q04DX003 (ip), vehicle: Klucel (hydroxypropylcellulose) (HPC) 109 % of control

CCOC(=O)c1ccc(NC(=O)/C=C/C(=O)O)cc1
inactive: [6] 100 % of control | dose: 200.0 mg/kg/injection, schedule: Q01DX009 (ip), vehicle: Klucel (hydroxypropylcellulose) (HPC) 95 % of control | [4] 98 % of control

C[n+]1c(-c2ccc(Cl)cc2Cl)c2cc([N+](=O)[O-])ccc2c2ccccc21
inactive: dose: 12.5 mg/kg/injection, schedule: Q01DX009 (ip), vehicle: water 113 % of control | dose: 25.0 mg/kg/injection, schedule: Q01DX009 (ip), vehicle: water 113 % of control | dose: 25.0 mg/kg/injection, schedule: Q04DX003 (ip), vehicle: water 108 % of control | dose: 50.0 mg/kg/injection, schedule: Q01DX009 (ip), vehicle: water 101 % of control | dose: 100.0 mg/kg/injection, schedule: Q04DX003 (ip), vehicle: water 95 % of control

CCOC(=S)SCC#CCSC(=S)OCC
inactive: dose: 100.0 mg/kg/injection, schedule: Q04DX002 (sc), vehicle: olive oil, sesame oil, peanut oil 104 % of control | dose: 200.0 mg/kg/injection, schedule: Q04DX002 (sc), vehicle: olive oil, sesame oil, peanut oil 114 % of control | dose: 400.0 mg/kg/injection, schedule: Q04DX002 (sc), vehicle: olive oil, sesame oil, peanut oil 96 % of control

CC1(C)N=C(N)N=C(N)N1c1cc(Cl)ccc1Cl
inactive: dose: 12.0 mg/kg/injection, schedule: Q04DX003 (ip), vehicle: saline 117 % of control | dose: 12.5 mg/kg/injection, schedule: Q01DX001 (ip), vehicle: saline 98 % of control | dose: 25.0 mg/kg/injection, schedule: Q01DX001 (ip), vehicle: saline 90 % of control | dose: 25.0 mg/kg/injection, schedule: Q01DX009 (ip), vehicle: saline 101 % of control | dose: 25.0 mg/kg/injection, schedule: Q04DX003 (ip), vehicle: saline 100 % of control | [7] 98 % of control | [8] 97 % of control | [9] 103 % of control

CCCN(CCC)C(=O)c1cccnc1
inactive: dose: 100.0 mg/kg/injection, schedule: Q04DX003 (ip), vehicle: saline with Tween-80 93 % of control | dose: 200.0 mg/kg/injection, schedule: Q04DX003 (ip), vehicle: saline with Tween-80 96 % of control | dose: 400.0 mg/kg/injection, schedule: Q04DX003 (ip), vehicle: saline with Tween-80 94 % of control

Nc1ccc(S(=O)(=O)Nc2cnc3ccccc3n2)cc1
inactive: [8] 99 % of control | dose: 100.0 mg/kg/injection, schedule: Q01DX009 (ip), vehicle: saline 92 % of control | [10] 91 % of control | dose: 200.0 mg/kg/injection, schedule: Q01DX009 (ip), vehicle: saline 89 % of control | dose: 200.0 mg/kg/injection, schedule: Q04DX002 (ip), vehicle: saline 94 % of control

Nc1ncc(C(=O)c2ccccc2)cc1Br
inactive: [11] 97 % of control | [12] 97 % of control | [5] 97 % of control

COc1ccc(/C=C2/c3c(c(-c4ccccc4)c4ccccc4c3-c3ccccc3)S2(=O)=O)cc1
inactive: dose: 50.0 mg/kg/injection, schedule: Q01DX001 (ip), vehicle: carboxymethylcellulose (CMC) 97 % of control | dose: 100.0 mg/kg/injection, schedule: Q01DX001 (ip), vehicle: carboxymethylcellulose (CMC) 95 % of control | dose: 200.0 mg/kg/injection, schedule: Q01DX001 (ip), vehicle: carboxymethylcellulose (CMC) 95 % of control | dose: 400.0 mg/kg/injection, schedule: Q01DX001 (ip), vehicle: carboxymethylcellulose (CMC) 86 % of control

c1ccc(-c2ccccc2NC2=NCCO2)cc1
inactive: dose: 12.5 mg/kg/injection, schedule: Q01DX009 (ip), vehicle: saline with Tween-80 100 % of control | dose: 25.0 mg/kg/injection, schedule: Q01DX009 (ip), vehicle: saline with Tween-80 94 % of control | dose: 50.0 mg/kg/injection, schedule: Q01DX009 (ip), vehicle: saline with Tween-80 94 % of control

O=C(CCl)NCCO
inactive: dose: 100.0 mg/kg/injection, schedule: Q04DX003 (ip), vehicle: saline 108 % of control | dose: 200.0 mg/kg/injection, schedule: Q04DX003 (ip), vehicle: saline 90 % of control | dose: 400.0 mg/kg/injection, schedule: Q04DX003 (ip), vehicle: saline 104 % of control

NCCSc1ccccc1C(=O)O
inactive: [11] 92 % of control | [12] 112 % of control | [5] 102 % of control

COC1OCC2OC(C)(C)OC2C1OS(=O)(=O)c1ccc(C)cc1 (centres undefined)
inactive: [7] 91 % of control | [1] 104 % of control | [2] 102 % of control | [3] 98 % of control and 96 % of control

C(=C\[P+](Cc1ccccc1)(c1ccccc1)c1ccccc1)/c1ccccc1
inactive: dose: 12.5 mg/kg/injection, schedule: Q04DX003 (ip), vehicle: saline with Tween-80 100 % of control | dose: 25.0 mg/kg/injection, schedule: Q04DX003 (ip), vehicle: saline with Tween-80 92 % of control

CCCCCCCCCCCCCCCCN(C)C(=S)c1ccc(Cl)c(Cl)c1
inactive: dose: 100.0 mg/kg/injection, schedule: Q01DX001 (ip), vehicle: Klucel (hydroxypropylcellulose) (HPC) 100 % of control | [11] 100 % of control | dose: 200.0 mg/kg/injection, schedule: Q01DX001 (ip), vehicle: Klucel (hydroxypropylcellulose) (HPC) 100 % of control | [12] 96 % of control | dose: 400.0 mg/kg/injection, schedule: Q01DX001 (ip), vehicle: Klucel (hydroxypropylcellulose) (HPC) 98 % of control | [5] 91 % of control

COC(=O)/C=C(\C)Nc1ccc([N+](=O)[O-])cc1
inactive: [1] 97 % of control | [2] 93 % of control | [3] 92 % of control

O=C1NC2(CCCC2)C(=O)N2CCCC12 (centres undefined)
inactive: [5] 97 % of control

CCC(=O)NC(CC(C)C)C(=O)NC(CC(C)C)C(=O)NC(C=O)CCCN=C(N)N (centres undefined) (tested in a mixture with another compound)
inactive: dose: 25.0 mg/kg/injection, schedule: Q04DX002 (ip), vehicle: saline 98 % of control | dose: 50.0 mg/kg/injection, schedule: Q04DX002 (ip), vehicle: saline 91 % of control | [10] 91 % of control

CCOC(=O)C(C#N)N=O (centres undefined)
inactive: dose: 6.25 mg/kg/injection, schedule: Q04DX003 (ip), vehicle: Klucel (hydroxypropylcellulose) (HPC) 89 % of control | dose: 12.5 mg/kg/injection, schedule: Q04DX003 (ip), vehicle: Klucel (hydroxypropylcellulose) (HPC) 91 % of control | dose: 25.0 mg/kg/injection, schedule: Q01DX009 (ip), vehicle: Klucel (hydroxypropylcellulose) (HPC) 95 % of control | dose: 25.0 mg/kg/injection, schedule: Q04DX003 (ip), vehicle: Klucel (hydroxypropylcellulose) (HPC) 92 % of control | dose: 50.0 mg/kg/injection, schedule: Q01DX009 (ip), vehicle: Klucel (hydroxypropylcellulose) (HPC) 103 % of control | [9] 100 % of control | [6] 97 % of control
